# Earlier results as cited in patent publication US7989405B2, “Prevention of microbial growth in metal working fluids” (Illinois Tool Works Inc., priority 2001, dated 2011).
# Tests used:
# Enterobacter aerogenes = details: Bacterial: Enterobacter aerogenes
# Escherischia coli = details: Bacterial: Escherischia coli
# Pseudomonas aeruginosa = details: Bacterial: Pseudomonas aeruginosa
# Staphylococcus aureus = details: Bacterial: Staphylococcus aureus
# Aspergillus niger = details: Fungal: Aspergillus niger
# Fusarium moniliforme = details: Fungal: Fusarium moniliforme
# Saccharomyces cerevisiae = details: Fungal: Saccharomyces cerevisiae
compound,measurement,setting,value
"CCC12COCN1COC2 [Bioban CS-1246, 7a-ethyldihydro-1H,3H,5H-oxazolo(3,4-c)oxazole]",MIC,Enterobacter aerogenes,250-300 parts per million
same,MIC,Escherischia coli,450-500 parts per million
same,MIC,Pseudomonas aeruginosa,800-850 parts per million
same,MIC,Staphylococcus aureus,200-250 parts per million
same,MIC,Aspergillus niger,65-125 parts per million
same,MIC,Fusarium moniliforme,125-250 parts per million
same,MIC,Saccharomyces cerevisiae,16-33 parts per million
same,irritation of eyes and skin,as supplied,irritating to eyes and skin
same,mutagenicity,as supplied,non-mutagenic
same,sensitisation,as supplied,not a sensitising agent
same,toxicity by inhalation and skin contact,as supplied,harmful by inhalation and in contact with the skin
same,hazard,at typical use dilutions,no hazard
